Measurements published in US20240076327A1 (priority 2020, published 2024).
Where a SMILES comes first, the peptide text is derived from it. Bridges are numbered along the chain shown (N, C = ends). Where no end group is shown, it is not given here.

Experiments:
[1] = buffer, 0 h, pH 9
physchem = details: buffer, pH 9

Molecule	observed overall stability (percentage of remaining parent peak) [1] [%]	remaining at 24 h (physchem) [%]	remaining at 48 h (physchem) [%]	remaining at 72 h (physchem) [%]	remaining at 96 h (physchem) [%]	remaining at 120 h (physchem) [%]	remaining at 144 h (physchem) [%]	remaining at 168 h (physchem) [%]	remaining at 360 h (physchem) [%]
CC[C@H](C)[C@H](NC(=O)[C@H](C)N)C(=O)N[C@H]1CSSC[C@@H]2NC(=O)[C@@H]3CSSC[C@@H](C(=O)N[C@@H](CCCNC(=N)N)C(=O)N[C@@H](CCCCN)C(=O)N[C@@H](CC(=O)O)C(=O)N[C@@H](CCC(=O)O)C(=O)N4CCC[C@H]4C(=O)O)NC(=O)[C@H](Cc4ccc(O)cc4)NC(=O)[C@H](CO)NC(=O)[C@H](C(C)C)NC(=O)CNC(=O)[C@H](CC(N)=O)NC(=O)[C@H](CO)NC(=O)[C@H](CCC(=O)O)NC(=O)[C@H](C)NC(=O)[C@H](CCCCN)NC(=O)[C@H](CSSC[C@H](NC(=O)[C@@H]4CCCN4C(=O)[C@H](CCCNC(=N)N)NC(=O)[C@H](CC(=O)O)NC(=O)[C@H](C)NC(=O)CNC(=O)[C@H]([C@@H](C)O)NC1=O)C(=O)N[C@@H](C)C(=O)N[C@@H](C)C(=O)N[C@H]1CSSC[C@H](NC1=O)C(=O)N1CCC[C@H]1C(=O)N3)NC(=O)[C@H](CO)NC(=O)[C@H]([C@@H](C)O)NC(=O)CNC(=O)[C@@H]1CCCN1C2=O [κ-hexatoxin-Hv1c] (H-AICTGADRPCAACCPCCPGTSCKAESNGVSYCRKDEP-OH; disulfide 3-17, 10-22, 13-14, 16-32)	100	91	80	75	61	51	41	30	9
GSQYCVPVDQPCSLNTQPCCDDATCTQERNENGHTVYYCRA (disulfide 5-20, 12-25, 19-39) [GS-ω/κ-hexatoxin-Hv1h]	100	94	91	82	83	83	81	69	50
